Measured values reported in patent publication US8912184B1, “Therapeutic and diagnostic methods” (Alzheimer's Institute of America, Inc., priority 2010, dated 2014).
Where two headings read alike, the source gives them in different places.

System: HCT116 cells
Experiment: Nicotinic Acid Rescue Cytotoxicity Assay, first method: cytotoxicity to HCT116 cells in presence and absence of 10 μM nicotinic acid
Format: cell-based
Conditions: Homo sapiens, HCT-116, 72 h
Protocol: Additionally, Nicotinic Acid (NA) rescue of cytotoxicity of Nampt inhibitors was assessed by two distinct methods. In the first method, Nampt1 inhibitor cytotoxicity was evaluated in the presence and absence of exogenous nicotinic acid (NA) at a fixed concentration. […] Twenty four hours after cells were plated, the media was removed and replaced with media containing 10 μM nicotinic acid. Compounds were then immediately added. Cell viability was then assessed at 72 h.
Using the first of the two assays described above, the 90 compounds shown in Table 5, below, were tested for cytotoxicity towards Naprt1-proficient HCT116 cells, and for the ability of NA to block the observed cytotoxicity (or “rescue” the cells from the cytotoxic activity of the tested compound). The compounds listed are referred to by a unique rescue analysis example number (i.e., R1, R2 . . . R90) that is used as a reference number in Table 4, in which the results of the cytotoxicity and rescue assays are presented.

[1] = absence of nicotinic acid, read-out: HCT116 72 h cytotoxicity
[2] = presence of 10 μM nicotinic acid, read-out: HCT116 72 h cytotoxicity with 10 μM Nicotinic Acid

Compound	IC50 [1]	IC50 [2]
S=C(NCCCCCCOc1ccc(Cl)cc1)Nc1cccnc1 [Example R39, 1-[6-(4-Chlorophenoxy)hexyl]-3-pyridin-3-ylthiourea]	1620 nM	> 10000 nM
N#C/N=C(/NCCCCCCOc1ccc(Cl)cc1)NCc1cccnc1 [Example R40, 1-[6-(4-Chlorophenoxy)hexyl]-2-cyano-3-(pyridin-3-ylmethyl)guanidine]	1090 nM	> 10000 nM
O=C(NCCCCCCOc1ccc(Cl)cc1)Nc1ccc(F)c(F)c1 [Example R41, 1-[6-(4-Chlorophenoxy)hexyl]-3-(3,4-difluorophenyl)urea]	7080 nM	6000 nM
CC(C)CCN(Cc1ccccc1Cl)c1ccc(C(=O)NCc2cccnc2)cc1 [Example R42, 4-[(2-Chlorobenzyl)(3-methylbutyl)amino]-N-(pyridin-3-ylmethyl)benzamide]	387 nM	> 10000 nM
C/C=C/CN(Cc1ccccc1Cl)c1ccc(C(=O)NCc2cccnc2)cc1 [Example R43, 4-[(2E)-But-2-en-1-yl(2-chlorobenzyl)amino]-N-(pyridin-3-ylmethyl)benzamide]	98.6 nM	> 10000 nM
CC(C)=CCN(Cc1ccccc1Cl)c1ccc(C(=O)NCc2cccnc2)cc1 [Example R44, 4-[(2-Chlorobenzyl)(3-methylbut-2-en-1-yl)amino]-N-(pyridin-3-ylmethyl)benzamide]	16.3 nM	> 10000 nM
CN(C)c1cccc2c(S(=O)(=O)Nc3ccc(NC(=O)NCc4cccnc4)cc3)cccc12 [Example R45, 5-(Dimethylamino)-N-(4-{[(pyridin-3-ylmethyl)carbamoyl]amino}phenyl) naphthalene-1-sulfonamide]	4.8 nM	> 10000 nM
O=C(NCc1cccnc1)Nc1ccc(NS(=O)(=O)c2ccc3ccccc3c2)cc1 [Example R46, N-(4-{[(Pyridin-3-ylmethyl)carbamoyl]amino}phenyl) naphthalene-2-sulfonamide]	64.8 nM	> 10000 nM
C#CCN(Cc1ccc2nc(C)n(C)c(=O)c2c1)c1ccc(C(=O)NCc2cccnc2)cc1 [Example R47, 4-{[(2,3-Dimethyl-4-oxo-3,4-dihydroquinazolin-6-yl)methyl](prop-2-yn-1-yl)amino}-N-(pyridin-3-ylmethyl)benzamide]	33.5 nM	> 10000 nM
O=C(NCc1cccnc1)c1ccc(OCc2ccccc2-c2cnc3ccccc3c2)cc1 [Example R48, N-(Pyridin-3-ylmethyl)-4-{[2-(quinolin-3-yl)benzyl]oxy}benzamide]	38.8 nM	> 10000 nM
O=C(NCc1cccnc1)Nc1ccc(NS(=O)(=O)c2ccccc2-c2ccccc2)cc1 [Example R49, N-(4-{[(Pyridin-3-ylmethyl)carbamoyl]amino}phenyl)biphenyl-2-sulfonamide]	4.9 nM	> 10000 nM
O=C(NCc1cccnc1)Nc1ccc(NS(=O)(=O)c2ccc([N+](=O)[O-])c(C(F)(F)F)c2)cc1 [Example R50, 4-Nitro-N-(4-{[(pyridin-3-ylmethyl)carbamoyl]amino}phenyl)-3-(trifluoromethyl)benzenesulfonamide]	6.7 nM	> 10000 nM
CC(C)=CCN(Cc1cc2c(=O)n(C)c(C)nc2cc1Cl)c1ccc(C(=O)NCc2cccnc2)cc1 [Example R51, 4-{[(7-Chloro-2,3-dimethyl-4-oxo-3,4-dihydroquinazolin-6-yl)methyl](3-methylbut-2-en-1-yl)amino}-N-(pyridin-3-ylmethyl)benzamide]	9.5 nM	> 10000 nM
CC(C)=CCN(Cc1cc2c(=O)n(C)cnc2cc1Cl)c1ccc(C(=O)NCc2cccnc2)cc1 [Example R52, 4-{[(7-Chloro-3-methyl-4-oxo-3,4-dihydroquinazolin-6-yl)methyl](3-methylbut-2-en-1-yl)amino}-N-(pyridin-3-ylmethyl)benzamide]	7.3 nM	> 10000 nM
CCOC(=O)c1c[nH]c2ccc(C(=O)Nc3ccc(C(=O)NCc4cccnc4)cc3)cc2c1=O [Example R53, ethyl 4-oxo-6-({4-[(pyridin-3-ylmethyl)carbamoyl]phenyl}carbamoyl)-1,4-dihydroquinoline-3-carboxylate]	6.8 nM	> 10000 nM
O=C(NCc1cccnc1)Nc1ccc(S(=O)(=O)Nc2ccccc2Cl)cc1 [Example R54, N-(2-chlorophenyl)-4-{[(pyridin-3-ylmethyl)carbamoyl]amino} benzenesulfonamide]	71.5 nM	> 10000 nM
O=C(NCc1cccnc1)Nc1ccc(NC(=O)c2ccccc2-c2ccccc2)cc1 [Example R55, N-(4-{[(pyridin-3-ylmethyl)carbamoyl]amino}phenyl)biphenyl-2-carboxamide]	48.8 nM	> 1000 nM
O=C(NCc1cccnc1)Nc1ccc(NS(=O)(=O)c2ccccc2Br)cc1F [Example R56, 2-bromo-N-(3-fluoro-4-{[(pyridin-3-ylmethyl)carbamoyl]amino}phenyl)benzene-sulfonamide]	50 nM	> 1000 nM

Compound	IC50 [1]	IC50 [2]
O=C(NCc1cccnc1)Nc1ccc(NS(=O)(=O)c2cc(C(F)(F)F)ccc2Br)cc1 [Example R57, 2-Bromo-N-(4-{[(pyridin-3-ylmethyl)carbamoyl]amino}phenyl)-5-(trifluoromethyl)benzenesulfonamide]	0.5 nM	> 10000 nM
O=C(NCc1cccnc1)Nc1ccc(C(=O)Nc2ccccc2-c2ccccc2)cc1 [Example R58, N-(biphenyl-2-yl)-4-{[(pyridin-3-ylmethyl)carbamoyl]amino}benzamide]	1.6 nM	> 10000 nM
N#C/N=C(/NCc1ccc(NS(=O)(=O)c2ccccc2-c2ccccc2)cc1)Nc1ccncc1 [Example R59, N-(4-{[N″-cyano-N′-(pyridin-4-yl)carbamimidamido]methyl}phenyl) biphenyl-2-sulfonamide]	0.6 nM	> 5000 nM
O=C(NCc1cccnc1)Nc1ccc(NS(=O)(=O)c2cc(C(F)(F)F)ccc2-c2ccccc2)cc1 [Example R60, N-(4-{[(pyridin-3-ylmethyl)carbamoyl]amino}phenyl)-4-(trifluoromethyl)biphenyl-2-sulfonamide]	3.7 nM	> 5000 nM
O=C(NCc1cccnc1)Nc1ccc(NS(=O)(=O)c2c(F)cc(F)cc2Br)cc1 [Example R61, 2-bromo-4,6-difluoro-N-(4-{[(pyridin-3-ylmethyl)carbamoyl]amino}phenyl)benzene-sulfonamide]	1.8 nM	> 1000 nM
O=C(NCc1cccnc1)Nc1ccc(NS(=O)(=O)c2ccc(F)cc2Br)cc1 [Example R62, 2-bromo-4-fluoro-N-(4-{[(pyridin-3-ylmethyl)carbamoyl]amino}phenyl)benzene-sulfonamide]	12.9 nM	> 1000 nM
O=C(NCc1cccnc1)Nc1ccc(NS(=O)(=O)c2ccccc2-c2ccsc2)cc1 [Example R63, N-(4-{[(pyridin-3-ylmethyl)carbamoyl]amino}phenyl)-2-(thiophen-3-yl)benzenesulfonamide]	1.6 nM	> 10000 nM
O=C(NCc1cccnc1)Nc1ccc(COc2ccccc2-c2ccccc2)cc1 [Example R64, 1-{4-[(Biphenyl-2-yloxy)methyl]phenyl}-3-(pyridin-3-ylmethyl)urea]	0.2 nM	> 10000 nM
O=C(NCc1ccc(NS(=O)(=O)c2ccccc2-c2ccccc2)cc1)Nc1ccncc1 [Example R65, N-(4-{[(pyridin-4-ylcarbamoyl)amino]methyl}phenyl)biphenyl-2-sulfonamide]	0.5 nM	> 1000 nM
N#C/N=C(\NCCCNS(=O)(=O)c1ccccc1-c1ccccc1)Nc1ccncc1 [Example R66, N-{3-[N″-cyano-N′-(pyridin-4-yl)carbamimidamido]propyl}biphenyl-2-sulfonamide]	1.3 nM	5000 nM
O=C(NCc1cccnc1)Nc1ccc(NS(=O)(=O)c2cc(C(F)(F)F)ccc2C(F)(F)F)cc1 [Example R67]	0.3 nM	> 1000 nM
O=C(NCc1cccnc1)Nc1ccc(NS(=O)(=O)c2ccc(F)cc2-c2ccccc2)cc1 [Example R68, 5-fluoro-N-(4-{[(pyridin-3-ylmethyl)carbamoyl]amino}phenyl)biphenyl-2-sulfonamide]	2.1 nM	> 5000 nM
O=C(NCc1cccnc1)Nc1ccc(NS(=O)(=O)c2cc(C(F)(F)F)ccc2Cl)cc1 [Example R69, 2-chloro-N-(4-{[(pyridin-3-ylmethyl)carbamoyl]amino}phenyl)-5-(trifluoromethyl)benzenesulfonamide]	1.3 nM	> 1000 nM
N#C/N=C(/NCc1ccc(COc2ccccc2-c2ccccc2)cc1)Nc1ccncc1 [Example R70, 1-{4-[(biphenyl-2-yloxy)methyl]benzyl}-2-cyano-3-pyridin-4-ylguanidine]	1.1 nM	> 5000 nM
O=C(NCc1cccnc1)Nc1ccc(NS(=O)(=O)c2sccc2Br)cc1 [Example R71, 3-bromo-N-(4-{[(pyridin-3-ylmethyl)carbamoyl]amino}phenyl) thiophene-2-sulfonamide]	13.2 nM	> 5000 nM
O=C(NCc1cccnc1)Nc1ccc(NS(=O)(=O)c2cc(C(F)(F)F)ccc2F)cc1 [Example R72, 2-fluoro-N-(4-{[(pyridin-3-ylmethyl)carbamoyl]amino}phenyl)-5-(trifluoromethyl)benzenesulfonamide]	15 nM	> 5000 nM
O=C(NCc1ccc(NS(=O)(=O)c2cc(C(F)(F)F)ccc2Br)cc1)Nc1ccncc1 [Example R73, 2-bromo-N-(4-{[(pyridin-4-ylcarbamoyl)amino]methyl}phenyl)-5-(trifluoromethyl)benzenesulfonamide]	1 nM	> 5000 nM
